According to US9382228B2 (priority 2013, dated 2016):
pIC50: −log10 of the molar value.

Legend:
[1] = test system: osteoclast precursors; test: cells; format: cell-based; settings: read-out: Osteoclast assay
Protocol: Osteoclast Tartrate-Resistant Acid Phosphatase Assay
Diluted compound was transferred to a 384-well black clear bottom plate. Two-thousand five hundred osteoclast precursors (Lonza, Walkersville, Md.) were added per well in growth media containing Receptor Activator of Nuclear Factor Kappa-beta ligand (RANKL) and M-CSF (R&D Systems, Minneapolis, Minn.). […] Tartrate-resistant acid phosphatase activity in the supernatant samples was determined using an acid phosphatase assay kit (Sigma, St. Louis, Mo.). Absorbance was measured at 550 nm using a plate reader. Data was analyzed using Prism software (Graphpad, San Diego, Calif.) to calculate IC50 values.

[2] = test system: M-NFS-60 cells; test: cells; settings: 67 h, read-out: M-NFS-60 cell proliferation
Protocol: M-NFS-6 Cell Proliferation Assay
A serial dilution of test compound was dispensed into a 384-well black clear bottom plate (Corning, Corning, N.Y.). Two thousand five hundred cells were added per well in 50 μL complete growth medium. […] IC50 values were calculated from a series of percent inhibition values determined at a range of inhibitor concentrations using software routines as implemented in the GraphPad Prism software package.

[3] = target: T1, unphosphorylated c-FMS kinase (uFMS, Seq. ID no. 1) (Homo sapiens, UniProt P07333); test: biochemical; settings: uFMS, enzymatic assay, ATP 500 μM
T1 sequence (P07333 538-972): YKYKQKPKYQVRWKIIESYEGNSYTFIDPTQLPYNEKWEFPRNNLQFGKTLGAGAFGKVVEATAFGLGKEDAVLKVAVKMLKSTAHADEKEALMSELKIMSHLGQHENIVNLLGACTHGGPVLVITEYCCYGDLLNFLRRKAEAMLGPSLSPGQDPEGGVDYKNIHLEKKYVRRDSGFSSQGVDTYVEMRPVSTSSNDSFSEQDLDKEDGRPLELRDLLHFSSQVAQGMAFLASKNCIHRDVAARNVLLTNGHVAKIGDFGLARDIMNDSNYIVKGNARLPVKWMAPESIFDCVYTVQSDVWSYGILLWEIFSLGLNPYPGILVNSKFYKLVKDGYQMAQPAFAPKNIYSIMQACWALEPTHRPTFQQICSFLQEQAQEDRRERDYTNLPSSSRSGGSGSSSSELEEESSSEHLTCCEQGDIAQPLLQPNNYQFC

[4] = target: unphosphorylated c-KIT kinase (uKIT, Seq. ID no. 2) (Homo sapiens, UniProt P10721); test: biochemical; settings: uKIT, enzymatic assay, ATP 2000 μM
Protocol: uKit kinase (Seq. ID No. 2) Assay
In this assay, the oxidation of NADH (thus the decrease at A340 nm) was continuously monitored spectrophometrically. […] The inhibition reaction was started by mixing serial diluted test compound with the above reaction mixture. The absorption at 340 nm was monitored continuously for 4 hours at 30° C. on Synergy 2 plate reader (BioTech).

[5] = target: unphosphorylated PDGFRβ kinase (uPDGFRβ, Seq. ID No. 3) (Homo sapiens, UniProt P09619); test: biochemical; settings: uPDGFRb, enzymatic assay, ATP 500 μM
Chain of unphosphorylated PDGFRβ kinase (uPDGFRβ, Seq. ID No. 3) (P09619 557-1106): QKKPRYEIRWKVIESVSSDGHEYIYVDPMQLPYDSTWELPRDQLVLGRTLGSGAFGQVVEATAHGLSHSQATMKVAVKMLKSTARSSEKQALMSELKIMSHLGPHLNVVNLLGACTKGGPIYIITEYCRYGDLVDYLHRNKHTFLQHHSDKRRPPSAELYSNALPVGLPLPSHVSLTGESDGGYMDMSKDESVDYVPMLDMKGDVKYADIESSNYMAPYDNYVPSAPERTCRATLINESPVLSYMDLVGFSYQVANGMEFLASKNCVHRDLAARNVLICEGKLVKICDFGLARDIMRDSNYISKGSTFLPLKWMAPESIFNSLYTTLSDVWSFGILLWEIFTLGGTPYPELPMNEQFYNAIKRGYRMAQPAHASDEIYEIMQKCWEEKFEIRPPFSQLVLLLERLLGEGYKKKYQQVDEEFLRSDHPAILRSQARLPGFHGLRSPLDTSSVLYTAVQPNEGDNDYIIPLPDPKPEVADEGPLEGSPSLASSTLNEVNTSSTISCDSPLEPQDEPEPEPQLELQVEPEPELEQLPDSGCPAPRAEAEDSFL
Protocol: Unphosphorylated PDGFRβ (uPDGFRβ) Kinase (Seq. ID No. 3) Assay
In this assay, the oxidation of NADH (thus the decrease at A340 nm) was continuously monitored spectrophometrically. […] The inhibition reaction was started by mixing serial diluted test compound with the above reaction mixture. The absorption at 340 nm was monitored continuously for 4 h at 30° C. on a Polarstar Optima or Synergy 2 plate reader. The reaction rate was calculated using the 1.5 to 2.5 h time frame. Percent inhibition was obtained by comparison of reaction rate with that of a control (i.e. with no test compound). IC50 values were calculated from a series of percent inhibition values determined at a range of inhibitor concentrations using software routines as implemented in the GraphPad Prism software package.

Chain of unphosphorylated c-KIT kinase (uKIT, Seq. ID no. 2) (P10721 with tags, fused parts or gaps): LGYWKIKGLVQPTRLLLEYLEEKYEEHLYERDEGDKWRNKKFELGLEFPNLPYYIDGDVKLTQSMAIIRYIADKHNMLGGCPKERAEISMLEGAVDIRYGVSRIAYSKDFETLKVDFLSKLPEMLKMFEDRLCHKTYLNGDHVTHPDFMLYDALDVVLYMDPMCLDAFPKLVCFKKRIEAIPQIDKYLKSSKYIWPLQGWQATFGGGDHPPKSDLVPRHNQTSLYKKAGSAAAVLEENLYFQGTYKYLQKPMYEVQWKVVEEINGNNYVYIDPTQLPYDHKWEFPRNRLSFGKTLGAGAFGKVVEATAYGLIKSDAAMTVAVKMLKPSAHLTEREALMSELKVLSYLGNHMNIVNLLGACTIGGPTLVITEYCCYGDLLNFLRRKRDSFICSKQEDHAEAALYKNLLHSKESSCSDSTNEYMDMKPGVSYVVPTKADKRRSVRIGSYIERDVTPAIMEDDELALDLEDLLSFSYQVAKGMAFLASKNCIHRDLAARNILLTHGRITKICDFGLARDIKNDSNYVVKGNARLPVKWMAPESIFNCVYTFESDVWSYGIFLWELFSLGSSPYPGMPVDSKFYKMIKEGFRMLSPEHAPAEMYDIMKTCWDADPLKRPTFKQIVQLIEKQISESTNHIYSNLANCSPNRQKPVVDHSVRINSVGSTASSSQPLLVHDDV

pIC50 [1]	pIC50 [3]	pIC50 [4]	pIC50 [5]	SMILES	pIC50 [2]
7.00 to 8.00	7.00 to 8.00	< 6.00	–	Cc1ncc(-c2cc(Oc3ccc(NC(=O)NC(=O)C4CCOC4)nc3)ccn2)s1 (stereo not shown) [Example 115, N-((5-((2-(2-methylthiazol-5-yl)pyridin-4-yl)oxy)pyridin-2-yl)carbamoyl)tetrahydrofuran-3-carboxamide]	6.00 to 7.00
> 8.00	> 8.00	–	7.00 to 8.00	Cn1cc(-c2cc(Oc3ccc(NC(=O)NC(=O)C4CC(C)(C)C4)nc3)ncn2)cn1 [Example 5, 3,3-dimethyl-N-((5-((6-(1-methyl-1H-pyrazol-4-yl)pyrimidin-4-yl)oxy)pyridin-2-yl)carbamoyl)cyclobutanecarboxamide]	> 8.00
–	< 6.00	< 6.00	< 6.00	Cn1cc(-c2cc(Oc3ccc(NC(=O)NC(=O)C4(C#N)CC4)nc3)ccn2)cn1 [Example 27, 1-cyano-N-((5-((2-(1-methyl-1H-pyrazol-4-yl)pyridin-4-yl)oxy)pyridin-2-yl)carbamoyl)cyclopropanecarboxamide]	< 6.00
> 8.00	–	–	–	CC(C)C(=O)NC(=O)Nc1ccc(Oc2ccnc(-c3cnn(C)c3)c2)cn1 [Example 24, N-((5-((2-(1-methyl-1H-pyrazol-4-yl)pyridin-4-yl)oxy)pyridin-2-yl)carbamoyl)isobutyramide]	–
> 8.00	–	6.00 to 7.00	–	Cn1cc(-c2cc(Oc3ccc(NC(=O)NC(=O)C4CC5CCC4O5)nc3)ccn2)cn1 (stereo not shown) [Example 111, N-((5-((2-(1-methyl-1H-pyrazol-4-yl)pyridin-4-yl)oxy)pyridin-2-yl)carbamoyl)-7-oxabicyclo[2.2.1]heptane-2-carboxamide]	–
–	7.00 to 8.00	–	< 6.00	COCCCC(=O)NC(=O)Nc1ccc(Oc2ccnc(-c3cnn(C)c3)c2)c(C)n1 [Example 25, 4-methoxy-N-((6-methyl-5-((2-(1-methyl-1H-pyrazol-4-yl)pyridin-4-yl)oxy)pyridin-2-yl)carbamoyl)butanamide]	6.00 to 7.00
7.00 to 8.00	7.00 to 8.00	< 6.00	–	COC1(C(=O)NC(=O)Nc2ccc(Oc3ccnc(-c4cnc(C)s4)c3)c(C)n2)CC1 [Example 122, 1-methoxy-N-((6-methyl-5-((2-(2-methylthiazol-5-yl)pyridin-4-yl)oxy)pyridin-2-yl)carbamoyl)cyclopropanecarboxamide]	6.00 to 7.00
7.00 to 8.00	> 8.00	7.00 to 8.00	–	COC(C)(C)C(=O)NC(=O)Nc1ccc(Oc2ccnc(-c3ccc(C4CCN(C)CC4)cc3)c2)c(C)n1 [Example 133, 2-methoxy-2-methyl-N-((6-methyl-5-((2-(4-(1-methylpiperidin-4-yl)phenyl)pyridin-4-yl)oxy)pyridin-2-yl)carbamoyl)propanamide]	> 8.00
–	6.00 to 7.00	< 6.00	–	Cc1nc(NC(=O)NC(=O)CN2CCN(C)CC2)ccc1Oc1ccnc(-c2cnn(C)c2)c1 [Example 50, N-((6-methyl-5-((2-(1-methyl-1H-pyrazol-4-yl)pyridin-4-yl)oxy)pyridin-2-yl)carbamoyl)-2-(4-methylpiperazin-1-yl)acetamide]	< 6.00
7.00 to 8.00	–	–	6.00 to 7.00	Cc1cc(-c2cc(Oc3ccc(NC(=O)NC(=O)C4CC(C)(C)C4)nc3C)ccn2)on1 [Example 14, 3,3-dimethyl-N-((6-methyl-5-((2-(3-methylisoxazol-5-yl)pyridin-4-yl)oxy)pyridin-2-yl)carbamoyl)cyclobutanecarboxamide]	–
6.00 to 7.00	–	–	–	CCC(=O)NC(=O)Nc1ccc(Oc2ccnc(-c3cnc(C)s3)c2)cn1 [Example 98, N-((5-((2-(2-methylthiazol-5-yl)pyridin-4-yl)oxy)pyridin-2-yl)carbamoyl)propionamide]	–
7.00 to 8.00	7.00 to 8.00	6.00 to 7.00	–	COC1(C(=O)NC(=O)Nc2ccc(Oc3ccnc(-n4cnc(C)c4)c3)cn2)CC1 [Example 143, 1-methoxy-N-((5-((2-(4-methyl-1H-imidazol-1-yl)pyridin-4-yl)oxy)pyridin-2-yl)carbamoyl)cyclopropanecarboxamide]	6.00 to 7.00
–	7.00 to 8.00	< 6.00	< 6.00	Cc1nc(NC(=O)NC(=O)C(C)(C)C#N)ccc1Oc1ccnc(-c2cnn(C)c2)c1 [Example 29, 2-cyano-2-methyl-N-((6-methyl-5-((2-(1-methyl-1H-pyrazol-4-yl)pyridin-4-yl)oxy)pyridin-2-yl)carbamoyl)propanamide]	6.00 to 7.00
7.00 to 8.00	–	7.00 to 8.00	6.00 to 7.00	COC1(C(=O)NC(=O)Nc2ccc(Oc3ccnc(-c4cnn(C)c4)c3)c(C)n2)CCCC1 [Example 150, 1-methoxy-N-((6-methyl-5-((2-(1-methyl-1H-pyrazol-4-yl)pyridin-4-yl)oxy)pyridin-2-yl)carbamoyl)cyclopentanecarboxamide]	–
7.00 to 8.00	7.00 to 8.00	6.00 to 7.00	–	Cc1cn(-c2cc(Oc3ccc(NC(=O)NC(=O)C4CCOCC4)nc3C)ccn2)cn1 [Example 142, N-((6-methyl-5-((2-(4-methyl-1H-imidazol-1-yl)pyridin-4-yl)oxy)pyridin-2-yl)carbamoyl)tetrahydro-2H-pyran-4-carboxamide]	6.00 to 7.00
> 8.00	–	–	–	Cc1ncc(-c2cc(Oc3ccc(NC(=O)NC(=O)C4(C)CC4)nc3)ccn2)s1 [Example 121, 1-methyl-N-((5-((2-(2-methylthiazol-5-yl)pyridin-4-yl)oxy)pyridin-2-yl)carbamoyl)cyclopropanecarboxamide]	–
–	6.00 to 7.00	< 6.00	< 6.00	Cc1nc(NC(=O)NC(=O)C2(C#N)CC2)ccc1Oc1ccnc(-c2cnn(C)c2)c1 [Example 28, 1-cyano-N-((6-methyl-5-((2-(1-methyl-1H-pyrazol-4-yl)pyridin-4-yl)oxy)pyridin-2-yl)carbamoyl)cyclopropanecarboxamide]	< 6.00
6.00 to 7.00	–	–	–	CC(C)C(=O)NC(=O)Nc1ccc(Oc2ccnc(-c3cnn(C)c3)c2)c(C(F)(F)F)n1 [Example 82, N-((5-((2-(1-methyl-1H-pyrazol-4-yl)pyridin-4-yl)oxy)-6-(trifluoromethyl)pyridin-2-yl)carbamoyl)isobutyramide]	–
–	6.00 to 7.00	< 6.00	< 6.00	Cn1cc(-c2cc(Oc3ccc(NC(=O)NC(=O)C(C)(C)C#N)nc3)ccn2)cn1 [Example 30, 2-cyano-2-methyl-N-((5-((2-(1-methyl-1H-pyrazol-4-yl)pyridin-4-yl)oxy)pyridin-2-yl)carbamoyl)propanamide]	< 6.00
6.00 to 7.00	6.00 to 7.00	< 6.00	–	CCC(=O)NC(=O)Nc1ccc(Oc2ccnc(-n3cnc(C)c3)c2)cn1 [Example 128, N-((5-((2-(4-methyl-1H-imidazol-1-yl)pyridin-4-yl)oxy)pyridin-2-yl)carbamoyl)propionamide]	< 6.00
> 8.00	–	6.00 to 7.00	–	COC1(C(=O)NC(=O)Nc2ccc(Oc3ccnc(-c4ccc(C5CCN(C)CC5)cc4)c3)c(C)n2)CC1 [Example 144, 1-methoxy-N-((6-methyl-5-((2-(4-(1-methylpiperidin-4-yl)phenyl)pyridin-4-yl)oxy)pyridin-2-yl)carbamoyl)cyclopropanecarboxamide]	–
> 8.00	–	–	–	COC1(C(=O)NC(=O)Nc2ccc(Oc3ccnc(-c4cnn(C)c4)c3)cn2)CCCC1 [Example 153, 1-methoxy-N-((5-((2-(1-methyl-1H-pyrazol-4-yl)pyridin-4-yl)oxy)pyridin-2-yl)carbamoyl)cyclopentanecarboxamide]	–
> 8.00	–	–	–	Cc1ccc(-c2cc(Oc3ccc(NC(=O)NC(=O)C4(C)CC4)nc3)ccn2)cn1 [Example 114, 1-methyl-N-((5-((6′-methyl-[2,3′-bipyridin]-4-yl)oxy)pyridin-2-yl)carbamoyl)cyclopropanecarboxamide]	–
7.00 to 8.00	7.00 to 8.00	< 6.00	–	Cc1ncc(-c2cc(Oc3ccc(NC(=O)NC(=O)C4CCOCC4)nc3C)ccn2)s1 [Example 129, N-((6-methyl-5-((2-(2-methylthiazol-5-yl)pyridin-4-yl)oxy)pyridin-2-yl)carbamoyl)tetrahydro-2H-pyran-4-carboxamide]	6.00 to 7.00
7.00 to 8.00	–	–	–	Cc1cn(-c2cc(Oc3ccc(NC(=O)NC(=O)C4(C)CCC4)nc3C)ccn2)cn1 [Example 147, 1-methyl-N-((6-methyl-5-((2-(4-methyl-1H-imidazol-1-yl)pyridin-4-yl)oxy)pyridin-2-yl)carbamoyl)cyclobutanecarboxamide]	–
